Data from PubChem BioAssay (NCI).
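A five-concentration, 48-hour dose response in 96-well plates underlies each endpoint, interpolated linearly between surrounding concentrations. Here, GI50 denotes the concentration required for 50% inhibition of growth. TGI: total growth inhibition.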

Key:
Experiment in all cases: NCI tumour cell line growth inhibition, 48 h
786-0 renal = test system: 786-0 renal
A498 renal = test system: A498 renal
A549 NSCLC = test system: A549 NSCLC
ACHN renal = test system: ACHN renal
CAKI-1 renal = test system: CAKI-1 renal
CCRF-CEM leukemia = test system: CCRF-CEM leukemia
COLO 205 colon = test system: COLO 205 colon
DU-145 prostate = test system: DU-145 prostate
EKVX NSCLC = test system: EKVX NSCLC
HCC-2998 colon = test system: HCC-2998 colon
HCT-116 colon = test system: HCT-116 colon
HCT-15 colon = test system: HCT-15 colon
HL-60(TB) leukemia = test system: HL-60(TB) leukemia
HOP-62 NSCLC = test system: HOP-62 NSCLC
HOP-92 NSCLC = test system: HOP-92 NSCLC
HS 578T breast = test system: HS 578T breast
HT29 colon = test system: HT29 colon
IGROV1 ovarian = test system: IGROV1 ovarian
K-562 leukemia = test system: K-562 leukemia
KM12 colon = test system: KM12 colon
LOX IMVI melanoma = test system: LOX IMVI melanoma
M14 melanoma = test system: M14 melanoma
MCF7 breast = test system: MCF7 breast
MDA-MB-231 breast = test system: MDA-MB-231 breast
MDA-MB-435 = test system: MDA-MB-435
MOLT-4 leukemia = test system: MOLT-4 leukemia
NCI-H226 lung = test system: NCI-H226 lung
NCI-H23 lung = test system: NCI-H23 lung
NCI-H460 lung = test system: NCI-H460 lung
NCI-H522 lung = test system: NCI-H522 lung
NCI/ADR-RES ovarian = test system: NCI/ADR-RES ovarian
OVCAR-3 ovarian = test system: OVCAR-3 ovarian
OVCAR-4 ovarian = test system: OVCAR-4 ovarian
OVCAR-5 ovarian = test system: OVCAR-5 ovarian
OVCAR-8 ovarian = test system: OVCAR-8 ovarian
PC-3 prostate = test system: PC-3 prostate
RPMI-8226 leukemia = test system: RPMI-8226 leukemia
RXF 393 renal = test system: RXF 393 renal
SF-268 CNS = test system: SF-268 CNS
SF-295 CNS = test system: SF-295 CNS
SF-539 CNS = test system: SF-539 CNS
SK-MEL-2 melanoma = test system: SK-MEL-2 melanoma
SK-MEL-28 melanoma = test system: SK-MEL-28 melanoma
SK-MEL-5 melanoma = test system: SK-MEL-5 melanoma
SK-OV-3 ovarian = test system: SK-OV-3 ovarian
SN12C renal = test system: SN12C renal
SNB-19 CNS = test system: SNB-19 CNS
SNB-75 CNS = test system: SNB-75 CNS
SR leukemia = test system: SR leukemia
SW-620 colon = test system: SW-620 colon
T-47D breast = test system: T-47D breast
TK-10 renal = test system: TK-10 renal
U251 CNS = test system: U251 CNS
UACC-257 melanoma = test system: UACC-257 melanoma
UACC-62 melanoma = test system: UACC-62 melanoma
UO-31 renal = test system: UO-31 renal

**Q.** For CC/C(Cc1ccccc1)=C(/c1ccc(O)cc1)c1ccc(OCCN2CCCC2)cc1, which GI50 (786-0 renal) is on record?
**A.** 1.72 µM

**Q.** What about the TGI (786-0 renal) of the same compound?
**A.** 3.22 µM

**Q.** What about the GI50 (A498 renal) of the same compound?
**A.** 1.27 µM

**Q.** And the TGI (A498 renal)?
**A.** 2.72 µM

**Q.** And the GI50 (A549 NSCLC)?
**A.** 2.05 µM

**Q.** And the TGI (A549 NSCLC)?
**A.** 3.82 µM

**Q.** What about the GI50 (ACHN renal) of the same compound?
**A.** 1.83 µM

**Q.** What about the TGI (ACHN renal) of the same compound?
**A.** 3.39 µM

**Q.** What about the GI50 (CAKI-1 renal) of the same compound?
**A.** 1.65 µM

**Q.** What about the TGI (CAKI-1 renal) of the same compound?
**A.** 3.52 µM

**Q.** And the GI50 (CCRF-CEM leukemia)?
**A.** 1.83 µM

**Q.** What about the TGI (CCRF-CEM leukemia) of the same compound?
**A.** 4.16 µM

**Q.** What about the GI50 (COLO 205 colon) of the same compound?
**A.** 1.76 µM

**Q.** What about the TGI (COLO 205 colon) of the same compound?
**A.** 3.39 µM

**Q.** And the GI50 (DU-145 prostate)?
**A.** 1.94 µM

**Q.** What about the TGI (DU-145 prostate) of the same compound?
**A.** 3.88 µM

**Q.** And the GI50 (EKVX NSCLC)?
**A.** 1.44 µM

**Q.** And the TGI (EKVX NSCLC)?
**A.** 2.89 µM

**Q.** And the GI50 (HCC-2998 colon)?
**A.** 1.54 µM

**Q.** What about the TGI (HCC-2998 colon) of the same compound?
**A.** 2.98 µM

**Q.** And the GI50 (HCT-116 colon)?
**A.** 1.83 µM

**Q.** And the TGI (HCT-116 colon)?
**A.** 3.3 µM

**Q.** What about the GI50 (HCT-15 colon) of the same compound?
**A.** 1.51 µM

**Q.** And the TGI (HCT-15 colon)?
**A.** 3.08 µM

**Q.** What about the GI50 (HL-60(TB) leukemia) of the same compound?
**A.** 1.9 µM

**Q.** And the TGI (HL-60(TB) leukemia)?
**A.** 3.84 µM

**Q.** What about the GI50 (HOP-62 NSCLC) of the same compound?
**A.** 1.9 µM

**Q.** What about the TGI (HOP-62 NSCLC) of the same compound?
**A.** 3.58 µM

**Q.** And the GI50 (HOP-92 NSCLC)?
**A.** 1.61 µM

**Q.** And the TGI (HOP-92 NSCLC)?
**A.** 3.26 µM

**Q.** And the GI50 (HS 578T breast)?
**A.** 1.86 µM

**Q.** And the TGI (HS 578T breast)?
**A.** 5.83 µM

**Q.** What about the GI50 (HT29 colon) of the same compound?
**A.** 1.72 µM

**Q.** What about the TGI (HT29 colon) of the same compound?
**A.** 3.78 µM

**Q.** And the GI50 (IGROV1 ovarian)?
**A.** 1.95 µM

**Q.** And the TGI (IGROV1 ovarian)?
**A.** 4.5 µM

**Q.** And the GI50 (K-562 leukemia)?
**A.** 1.2 µM

**Q.** What about the TGI (K-562 leukemia) of the same compound?
**A.** 3.41 µM

**Q.** What about the GI50 (KM12 colon) of the same compound?
**A.** 1.94 µM

**Q.** What about the TGI (KM12 colon) of the same compound?
**A.** 3.74 µM

**Q.** And the GI50 (LOX IMVI melanoma)?
**A.** 1.62 µM

**Q.** And the TGI (LOX IMVI melanoma)?
**A.** 3.05 µM

**Q.** What about the GI50 (M14 melanoma) of the same compound?
**A.** 1.8 µM

**Q.** What about the TGI (M14 melanoma) of the same compound?
**A.** 3.64 µM

**Q.** What about the GI50 (MCF7 breast) of the same compound?
**A.** 0.0211 µM

**Q.** And the TGI (MCF7 breast)?
**A.** 2.22 µM

**Q.** What about the GI50 (MDA-MB-231 breast) of the same compound?
**A.** 2.1 µM

**Q.** And the TGI (MDA-MB-231 breast)?
**A.** 4.05 µM

**Q.** What about the GI50 (MDA-MB-435) of the same compound?
**A.** 1.67 µM

**Q.** And the TGI (MDA-MB-435)?
**A.** 3.23 µM

**Q.** What about the GI50 (MOLT-4 leukemia) of the same compound?
**A.** 1.57 µM

**Q.** And the TGI (MOLT-4 leukemia)?
**A.** 3.63 µM

**Q.** What about the GI50 (NCI-H226 lung) of the same compound?
**A.** 1.77 µM

**Q.** What about the TGI (NCI-H226 lung) of the same compound?
**A.** 3.58 µM

**Q.** What about the GI50 (NCI-H23 lung) of the same compound?
**A.** 1.72 µM

**Q.** And the TGI (NCI-H23 lung)?
**A.** 3.53 µM

**Q.** And the GI50 (NCI-H460 lung)?
**A.** 1.72 µM

**Q.** What about the TGI (NCI-H460 lung) of the same compound?
**A.** 3.48 µM

**Q.** What about the GI50 (NCI-H522 lung) of the same compound?
**A.** 1.89 µM

**Q.** And the TGI (NCI-H522 lung)?
**A.** 3.67 µM

**Q.** And the GI50 (NCI/ADR-RES ovarian)?
**A.** 2.1 µM

**Q.** And the TGI (NCI/ADR-RES ovarian)?
**A.** 5.44 µM

**Q.** And the GI50 (OVCAR-3 ovarian)?
**A.** 1.82 µM

**Q.** And the TGI (OVCAR-3 ovarian)?
**A.** 3.46 µM

**Q.** What about the GI50 (OVCAR-4 ovarian) of the same compound?
**A.** 2.08 µM

**Q.** What about the TGI (OVCAR-4 ovarian) of the same compound?
**A.** 5.18 µM

**Q.** What about the GI50 (OVCAR-5 ovarian) of the same compound?
**A.** 1.86 µM

**Q.** And the TGI (OVCAR-5 ovarian)?
**A.** 3.93 µM

**Q.** And the GI50 (OVCAR-8 ovarian)?
**A.** 2.39 µM

**Q.** And the TGI (OVCAR-8 ovarian)?
**A.** 5.39 µM

**Q.** What about the GI50 (PC-3 prostate) of the same compound?
**A.** 1.79 µM

**Q.** What about the TGI (PC-3 prostate) of the same compound?
**A.** 3.25 µM

**Q.** And the GI50 (RPMI-8226 leukemia)?
**A.** 2.1 µM

**Q.** What about the TGI (RPMI-8226 leukemia) of the same compound?
**A.** 4.67 µM

**Q.** What about the GI50 (RXF 393 renal) of the same compound?
**A.** 1.56 µM

**Q.** And the TGI (RXF 393 renal)?
**A.** 3.13 µM

**Q.** What about the GI50 (SF-268 CNS) of the same compound?
**A.** 1.61 µM

**Q.** What about the TGI (SF-268 CNS) of the same compound?
**A.** 3.35 µM

**Q.** What about the GI50 (SF-295 CNS) of the same compound?
**A.** 1.81 µM

**Q.** And the TGI (SF-295 CNS)?
**A.** 3.46 µM

**Q.** And the GI50 (SF-539 CNS)?
**A.** 1.67 µM

**Q.** And the TGI (SF-539 CNS)?
**A.** 3.21 µM

**Q.** And the GI50 (SK-MEL-2 melanoma)?
**A.** 2.04 µM

**Q.** What about the TGI (SK-MEL-2 melanoma) of the same compound?
**A.** 3.84 µM

**Q.** What about the GI50 (SK-MEL-28 melanoma) of the same compound?
**A.** 1.72 µM

**Q.** What about the TGI (SK-MEL-28 melanoma) of the same compound?
**A.** 3.42 µM

**Q.** What about the GI50 (SK-MEL-5 melanoma) of the same compound?
**A.** 1.7 µM

**Q.** And the TGI (SK-MEL-5 melanoma)?
**A.** 3.08 µM

**Q.** And the GI50 (SK-OV-3 ovarian)?
**A.** 1.74 µM

**Q.** And the TGI (SK-OV-3 ovarian)?
**A.** 3.32 µM

**Q.** What about the GI50 (SN12C renal) of the same compound?
**A.** 1.88 µM

**Q.** What about the TGI (SN12C renal) of the same compound?
**A.** 3.88 µM

**Q.** What about the GI50 (SNB-19 CNS) of the same compound?
**A.** 1.97 µM

**Q.** What about the TGI (SNB-19 CNS) of the same compound?
**A.** 3.93 µM

**Q.** And the GI50 (SNB-75 CNS)?
**A.** 1.31 µM

**Q.** And the TGI (SNB-75 CNS)?
**A.** 2.98 µM

**Q.** What about the GI50 (SR leukemia) of the same compound?
**A.** 1.35 µM

**Q.** And the TGI (SR leukemia)?
**A.** 3.2 µM

**Q.** And the GI50 (SW-620 colon)?
**A.** 1.84 µM

**Q.** And the TGI (SW-620 colon)?
**A.** 3.63 µM

**Q.** And the GI50 (T-47D breast)?
**A.** 1.26 µM

**Q.** And the TGI (T-47D breast)?
**A.** 3.32 µM

**Q.** And the GI50 (TK-10 renal)?
**A.** 1.75 µM

**Q.** What about the TGI (TK-10 renal) of the same compound?
**A.** 3.34 µM

**Q.** And the GI50 (U251 CNS)?
**A.** 1.69 µM

**Q.** And the TGI (U251 CNS)?
**A.** 3.19 µM

**Q.** What about the GI50 (UACC-257 melanoma) of the same compound?
**A.** 2.14 µM

**Q.** What about the TGI (UACC-257 melanoma) of the same compound?
**A.** 3.89 µM

**Q.** And the GI50 (UACC-62 melanoma)?
**A.** 2.03 µM

**Q.** And the TGI (UACC-62 melanoma)?
**A.** 4.12 µM

**Q.** What about the GI50 (UO-31 renal) of the same compound?
**A.** 1.43 µM

**Q.** What about the TGI (UO-31 renal) of the same compound?
**A.** 2.95 µM
